Data: US20180193273A1, “PHARMACEUTICAL COMPOSITION COMPRISING AMLODIPINE AND DEXTROMETHORPHAN” (TSH BIOPHARM CORPORATION LTD., priority 2015, published 2018)

Assays:
[1] = Different excipients: potency and impurity of vial samples A1 to A25 after 60° C./75% RH for 2 weeks (HPLC); assay type: physicochemical; conditions: glass vial sample
[2] = Compatibility study: drug potency and total impurity test of vial powder mixes after storage at 60° C./75% RH for 2 weeks (HPLC); assay type: physicochemical; conditions: glass vial powder mix

Row | Compound | Total impurity (%): NMT 1.00% [1] | % Potency (Amlodipine besylate) [2] | Total impurity [2]
1 | CCOC(=O)C1=C(COCCN)NC(C)=C(C(=O)OC)C1c1ccccc1Cl (stereo not drawn) [Sample A1, Amlodipine besylate] | 0.02% |  | 
2 | CCOC(=O)C1=C(COCCN)NC(C)=C(C(=O)OC)C1c1ccccc1Cl (stereo not drawn) [Table 1, Amlodipine besylate] |  | 100.2% | 0.02
